Reference: ChEMBL document CHEMBL5260795, “Antifungal potential of marine natural products” (Eur J Med Chem, 2017)
≈ marks a conversion by molar mass, not a printed value.

Experiments:
Nannizzia gypsea [1] = experiment: Antifungal activity against Microsporum gypseum ATCC31388 by atomatic microplate reader analysis; type: functional
Candida albicans [2] = experiment: Antifungal activity against Candida albicans ATCC76615 by atomatic microplate reader analysis; type: functional
Candida parapsilosis = experiment: Antifungal activity against clinical strain Candida parapsilosis by atomatic microplate reader analysis; type: functional; details: Lodderomyces parapsilosis
Kluyveromyces marxianus [3] = experiment: Antifungal activity against clinical strain Candida pseudotropicalis by atomatic microplate reader analysis; type: functional
Paradendryphiella salina = experiment: Antifungal activity against Dendry-phiella salina; type: functional, organism-based
Candida albicans [4] = experiment: Antifungal activity against wild type Candida albicans; type: functional, organism-based
Lindra thalassiae = experiment: Antifungal activity against Lindra thalassiae; type: functional, organism-based; details: Lindriella thalassiae
Candida albicans [5] = experiment: Antifungal activity against amphotericin-B-resistant Candida albicans; type: functional, organism-based
Nannizzia gypsea [6] = experiment: Antifungal activity against Microsporum gypseum; type: functional
Kluyveromyces marxianus [7] = experiment: Antifungal activity against Candida pseudotropicalis; type: functional
Trichophyton rubrum = experiment: Antifungal activity against Trichophyton rubrum; type: functional
Candida albicans [8] = experiment: Antimicrobial activity against Candida albicans assessed as inhibition of fungal growth; type: functional
Cladosporium cucumerinum = experiment: Antifungal activity against Cladosporium cucumerinum assessed as zone of inhibition; type: functional

CO[C@@H]1[C@@H](O)[C@H](O[C@@H]2[C@H](O)[C@H](O[C@H]3[C@H](O)[C@@H](O)[C@H](O[C@H]4[C@H](OC5CC[C@]6(C)C7=C(CC[C@H]6C5(C)C)[C@]5(C)CC[C@H]6[C@]5(CC7)C(=O)O[C@@]6(C)C[C@H](O)CC(C)C)OC[C@@H](O[C@@H]5O[C@H](CO)[C@@H](O)[C@H](O)[C@H]5O)[C@@H]4O)O[C@@H]3CO)OC[C@H]2O)O[C@H](CO)[C@H]1O (stereo partly drawn) was tested, and the MIC (Nannizzia gypsea [1]) was 3.4 µg/mL (≈ 2.75 µM), the MIC (Candida albicans [2]) was 3.4 µg/mL (≈ 2.75 µM) and the MIC (Candida parapsilosis) was 3.4 µg/mL (≈ 2.75 µM). It also gave an MIC (Kluyveromyces marxianus [3]) of 3.4 µg/mL (≈ 2.75 µM).

Compound CO[C@H]1C[C@H](CC[C@H](C)[C@H](O)[C@H](C)[C@H]2OC(=O)/C=C/C(C)=C/[C@@H](O)[C@H](OC)C[C@@H]3C=CC[C@@H](C[C@@H](OC)[C@@]4(CO4)[C@@H](OC)C[C@@H](OC)[C@@H]2C)O3)O[C@@H](C)C1 has an IC50 (Paradendryphiella salina) of 0.034 µg/mL (≈ 0.0443 µM), an IC50 (Candida albicans [4]) of 1.3 µg/mL (≈ 1.69 µM) and an IC50 (Lindra thalassiae) of 0.135 µg/mL (≈ 0.176 µM). The IC50 (Candida albicans [5]) was 0.5 µg/mL (≈ 0.652 µM).

C=C(C)CCC[C@]1(C)OC(=O)[C@]23[C@@H](O)C=C4[C@@H](CC[C@H]5C(C)(C)[C@@H](O[C@@H]6OC[C@@H](OS(=O)(=O)[O-])[C@H](O)[C@H]6O[C@@H]6O[C@H](C)[C@@H](O[C@@H]7O[C@H](CO)[C@@H](O)[C@H](O[C@@H]8O[C@H](CO)[C@@H](O)[C@H](OC)[C@H]8O)[C@H]7O)[C@H](O)[C@H]6O)CC[C@]45C)[C@]2(C)CC[C@@]31O.[Na+] gave an MIC (Nannizzia gypsea [6]) of 1 µg/mL, an MIC (Kluyveromyces marxianus [7]) of 1 µg/mL and an MIC (Trichophyton rubrum) of 1 µg/mL. The MIC (Candida albicans [8]) was 1 µg/mL.

With CO[C@@H]1[C@@H](O)[C@H](O[C@@H]2[C@@H](O)[C@H](O[C@H]3[C@H](O)[C@@H](O)[C@H](O[C@H]4[C@H](O[C@H]5CC[C@]6(C)C7C[C@H](O)[C@]89C(=O)O[C@@](C)(CCCC(C)C)[C@@]8(O)CC[C@@]9(C)C7=CC[C@H]6C5(C)C)OC[C@@H](OS(=O)(=O)[O-])[C@@H]4O)O[C@@H]3C)O[C@H](COS(=O)(=O)[O-])[C@H]2O)O[C@H](CO)[C@H]1O.[Na+].[Na+] (stereo partly drawn) the “inhibition zone (IZ)” value (Cladosporium cucumerinum) was 8 mm.
